# Results from patent US20250288564A1, “DIHYDROBERBERINE COMPOSITION AND USE THEREOF” (NANJING NUTRABUILDING BIO-TECH CO., LTD., priority 2022, published 2025).
# Assays:
# [1] = tested on: Akkermansia muciniphila; assay: Relative abundance of microbiota in feces of volunteers (16s sequencing); type: in vivo, human; conditions: 200 mg DHB every day, 3-week experiment, FIG. 1A
# Method: (§1) Experimental method: Six volunteers (three males and three females) were recruited to obtain relevant health data, and it was confirmed that they had not taken antibiotics or probiotics in the previous three months, and were healthy and had no chronic diseases. A 3-week experiment was designed. Volunteers had 30 minutes of moderate-intensity exercise every day, and ensured regular work and rest, reasonable diet, and no smoking or drinking. They were administered 200 mg of dihydroberberine (DHB) every day, and fecal samples were collected on days 0, 7, 14 and 21 of the experiment, and the corresponding bacterial species were analyzed. Before the experiment, fecal samples of each volunteer were collected, and species information was obtained through genomic DNA extraction, PCR amplification of 16s RNA and database comparison.
# [2] = tested on: Bacteroides fragilis; assay: as above; type: in vivo, human; conditions: 200 mg DHB every day, 3-week experiment, FIG. 1A
# Method: as §1
# [3] = tested on: Desulfovibrio; assay: as above; type: in vivo, human; conditions: 200 mg DHB every day, 3-week experiment, FIG. 1B
# Method: as §1
# [4] = tested on: Faecalibacterium Prausnitzii; assay: as above; type: in vivo, human; conditions: 200 mg DHB every day, 3-week experiment, FIG. 1A
# Method: as §1
# [5] = tested on: Klebsiella pneumoniae; assay: as above; type: in vivo, human; conditions: 200 mg DHB every day, 3-week experiment, FIG. 1B
# Method: as §1
# [6] = tested on: Lactobacillus acidophilus; assay: as above; type: in vivo, human; conditions: 200 mg DHB every day, 3-week experiment, FIG. 1A
# Method: as §1
# [7] = tested on: Akkermansia muciniphila; assay: Relative abundance of microbiota in feces of mice (16S rDNA sequencing); type: in vivo; conditions: DHB 100 mg/kg gavage once a day for 4 weeks, FIG. 2A
# Text: (§2) Experimental method: After a week of adaptive feeding, mice were randomly divided into four groups according to sex and weight: group 1, control group, n=10; group 2, normal+DHB group, n=10; group 3, high-fat-high-sugar group, n=10; and group 4, high-fat-high-sugar+DHB group, n=10. High-fat-high-sugar group (group 3) and high-fat-high-sugar+DHB group (group 4) were given high-fat and high-sugar feed (containing 35% fat, 18% protein and 47% carbohydrate), while the control group and normal+DHB group were given normal feed. After eight weeks, blood was taken from the tail vein to detect blood sugar, and the groups 3 and 4 were given high-fat and high-sugar feed, while the control group and normal+DHB group (groups 1 and 2) were given basic feed until the end of the experiment. Then, groups 2 and 4 were administered DHB at 100 mg/kg (dissolved in physiological saline) for 4 weeks, and fecal samples were taken on days 0, 14 and 28. The maximum dose of DHB refers to the usual dose of daily health care, and the dosage is set to 200 mg/kg. The specific gavage scheme is: dissolve DHB in water and gavage once a day according to the weight of mice, while the control group gavage with the same amount of pure water. Analysis of the relative abundance of intestinal flora: Four samples of mouse feces were randomly taken from each group. The samples were first extracted for DNA, 16S rDNA was amplified by PCR, and then sequenced. After completing the classification of data species, the relative abundance of each species was analyzed.
# [8] = tested on: Bacteroides fragilis; assay: as above; type: in vivo; conditions: DHB 100 mg/kg gavage once a day for 4 weeks, FIG. 2A
# Text: as §2
# [9] = tested on: Desulfovibrio; assay: as above; type: in vivo; conditions: DHB 100 mg/kg gavage once a day for 4 weeks, FIG. 2B
# Text: as §2
# [10] = tested on: Faecalibacterium Prausnitzii; assay: as above; type: in vivo; conditions: DHB 100 mg/kg gavage once a day for 4 weeks, FIG. 2A
# Text: as §2
# [11] = tested on: Klebsiella pneumoniae; assay: as above; type: in vivo; conditions: DHB 100 mg/kg gavage once a day for 4 weeks, FIG. 2B
# Text: as §2
# [12] = tested on: Lactobacillus acidophilus; assay: as above; type: in vivo; conditions: DHB 100 mg/kg gavage once a day for 4 weeks, FIG. 2A
# Text: as §2
# [13] = tested on: Bacteroides and Firmicutes; assay: Abundance ratio of Bacteroides and Firmicutes in mouse feces; type: in vivo, mice; conditions: DHB 100 mg/kg, 4 weeks, FIG. 3
# Text: as §2, with “Analysis of the relative abundance of intestinal flora: Four samples of mouse feces were randomly taken from each group. The samples were first extracted for DNA, 16S rDNA was amplified by PCR, and then sequenced.” left out, “analyzed. […]” for “analyzed.”
# [14] = tested on: Akkermansia muciniphila; assay: Absolute amount of Akkermansia muciniphila in mouse feces (qPCR); type: in vivo, mice; conditions: DHB 100 mg/kg, 4 weeks, FIG. 4
# Text: Experimental method: After a week of adaptive feeding, mice were randomly divided into four groups according to sex and weight: group 1, control group, n=10; group 2, normal+DHB group, n=10; group 3, high-fat-high-sugar group, n=10; and group 4, high-fat-high-sugar+DHB group, n=10. High-fat-high-sugar group (group 3) and high-fat-high-sugar+DHB group (group 4) were given high-fat and high-sugar feed (containing 35% fat, 18% protein and 47% carbohydrate), while the control group and normal+DHB group were given normal feed. After eight weeks, blood was taken from the tail vein to detect blood sugar, and the groups 3 and 4 were given high-fat and high-sugar feed, while the control group and normal+DHB group (groups 1 and 2) were given basic feed until the end of the experiment. […]
# Determination of absolute amount of Akkermansia muciniphila in mouse feces: The colon feces of mice were collected, the absolute amount of Akkermansia mucinipha in each gram of feces was detected, and the influence of the composition of the invention on the absolute amount of Akkermansia mucinipha in the intestines of normal and high-fat-high-sugar mice was analyzed. […] The data is expressed as the logarithm of the number of bacteria per gram of feces (Log 10), and the results are shown in FIGS. 2-4.
# [15] = tested on: acute colitis model; assay: DSS-induced acute colitis model in mice (DAI, colon pathology); type: in vivo; conditions: 3% DSS for 9 days, treatment group DSS+DHB, DHB 50 mg/kg daily
# Text: Experimental method: Thirty 4-6-week-old mice, 15 males and 15 females, were selected for adaptive feeding for 7 days in advance. They were randomly divided into control group (CON), model group (DSS) and treatment group (DSS+DHB), with 10 mice in each group. The model group and the treatment group were gavaged with 3% dextran sodium sulfate (DSS) for 9 days to establish an acute colitis model, while the control group was gavaged with the same amount of normal saline every day. The weight, feces and rectal bleeding of mice were recorded every day, and the disease activity index (DAI) was used to evaluate the condition of colitis. The DAI value was obtained by adding all the scores and dividing them by three. Mice in the treatment group were given DHB at a daily dose of 50 mg/kg. On the 10th day, blood was taken from the orbit of each mouse, and then it was killed. Colon tissues were collected, fixed in 4% paraformaldehyde solution and stored at −80° C. for subsequent analysis. The pathological damage of colon tissue was examined by hematoxylin-eosin staining and Alxin blue staining. [table]
# [16] = compared with berberine, background statement; cited from earlier work
# [17] = high-fat-high-sugar mice: group 4 (+DHB) compared with group 3
# [18] = normal feed mice: group 2 (normal+DHB) compared with group 1 (control)
smiles,measurement,setting,value
COc1ccc2c(c1OC)CN1CCc3cc4c(cc3C1=C2)OCO4 [dihydroberberine],increase of relative abundance level of Akkermansia muciniphila,[1],0.09%
same,increase of relative abundance level of Bacteroides fragilis,[2],0.11%
same,decrease of relative abundance level of Desulfovibrio,[3],0.14%
same,increase of relative abundance level of Faecalibacterium Prausnitzii,[4],0.15%
same,decrease of relative abundance level of Klebsiella pneumoniae,[5],0.12%
same,increase of relative abundance level of Lactobacillus acidophilus,[6],0.20%
same,increase of relative abundance level of Akkermansia muciniphila,[7],0.09%
same,increase of relative abundance level of Bacteroides fragilis,[8],0.10%
same,decrease of relative abundance level of Desulfovibrio,[9],0.08%
same,increase of relative abundance level of Faecalibacterium Prausnitzii,[10],0.14%
same,decrease of relative abundance level of Klebsiella pneumoniae,[11],0.11%
same,increase of relative abundance level of Lactobacillus acidophilus,[12],0.19%
same,increase of ratio of Bacteroides to Firmicutes,[13]; [17],0.51
same,increase of ratio of Bacteroides to Firmicutes,[13]; [18],0.36
same,increase of logarithm number of Akkermansia muciniphila per gram of feces,[14]; [17],0.55 order of magnitude
same,increase of logarithm number of Akkermansia muciniphila per gram of feces,[14]; [18],0.65 order of magnitude
same,"intestinal pathological changes (colon tissue, hematoxylin-eosin and Alxin blue staining)",[15]; FIGS. 5A-5C,significantly improved the integrity of crypt structure
same,DAI score (disease activity index),[15]; model group close to 3,about 1.1
same,water solubility relative to berberine,[16],higher water solubility
